Measured values published in PubChem BioAssay (NCI).
Values joined by “and” are separate entries in the source; they are usually repeats but may differ in a detail not shown here. Equal entries are not always repeated.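 1) Cells in 96-well plates. 2) Compound, 48 h, 5 concentrations. 3) Linear interpolation between surrounding doses. 4) Unreached endpoint = highest concentration. GI50: concentration for 50% inhibition of growth. TGI: total growth inhibition.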

Legend:
Assay in all cases: NCI anticancer screen, dose series, 48 h
SN12C renal = tested on: SN12C renal
SK-MEL-28 melanoma = tested on: SK-MEL-28 melanoma
M14 melanoma = tested on: M14 melanoma
SR leukemia = tested on: SR leukemia
NCI-H226 lung = tested on: NCI-H226 lung
SF-268 CNS = tested on: SF-268 CNS
UO-31 renal = tested on: UO-31 renal
MALME-3M melanoma = tested on: MALME-3M melanoma
HCC-2998 colon = tested on: HCC-2998 colon
MDA-MB-231 breast = tested on: MDA-MB-231 breast
PC-3 prostate = tested on: PC-3 prostate

Structure (SMILES) | TGI (SN12C renal) | TGI (SK-MEL-28 melanoma) | TGI (M14 melanoma) | TGI (SR leukemia) | TGI (NCI-H226 lung) | TGI (SF-268 CNS) | TGI (UO-31 renal) | TGI (MALME-3M melanoma) | TGI (HCC-2998 colon) | TGI (MDA-MB-231 breast) | TGI (PC-3 prostate) | GI50 (SK-MEL-28 melanoma) | GI50 (HCC-2998 colon)
O=[N+]([O-])c1ccc(NC2OCC(O)C(O)C2O)cc1 (centres undefined) | > 100 µM | > 100 µM | > 100 µM | > 100 µM | > 100 µM | > 100 µM | > 100 µM | > 100 µM | > 100 µM | – | – | – | –
NC(=O)N/N=C(\Cc1nc2ccc(C(=O)c3ccccc3)cc2[nH]c1=O)C(=O)Nc1ccc(Br)cc1 | > 100 µM | > 100 µM | > 100 µM | > 100 µM | > 100 µM | > 100 µM | > 100 µM | > 100 µM | > 100 µM | – | – | – | –
O=c1ccc2ccccc2o1 | > 100 µM | > 100 µM | > 100 µM | – | > 100 µM | > 100 µM | > 100 µM | > 100 µM | > 100 µM | – | – | – | –
Cc1cc(N(CCC#N)CCC#N)ccc1/C=C(\NC(=O)/C=C/c1ccccc1)NC(=O)Nc1ccc(Cl)cc1 | > 100 µM | > 100 µM | > 100 µM | – | > 100 µM | > 100 µM | > 100 µM | > 100 µM | > 100 µM | – | – | – | –
CC(C)CCCC(C)[C@H]1CC[C@H]2[C@@H]3CC[C@H]4C[C@@H](CCC=C(c5cc(Cl)c(O)c(C(=O)OC(C)(C)C)c5)c5cc(Cl)c(O)c(C(=O)OC(C)(C)C)c5)CC[C@]4(C)[C@H]3CC[C@]12C (some centres undefined) | > 50 µM | > 50 µM | > 50 µM | – | – | > 50 µM | – | – | > 50 µM | > 50 µM | > 50 µM | – | –
CC(C)(C)c1cc(-c2ccc(-c3cc(C(C)(C)C)c(O)c(C(C)(C)C)c3)cc2)cc(C(C)(C)C)c1O | > 100 µM | > 100 µM | > 100 µM | > 100 µM | > 100 µM | > 100 µM | > 100 µM | > 100 µM | – | > 100 µM | > 100 µM | – | –
C=C1CC/C=C(/C(=O)O)CC[C@H]2[C@@H]1CC2(C)C | > 100 µM | > 100 µM | > 100 µM | – | > 100 µM | > 100 µM | > 100 µM | > 100 µM | > 100 µM | > 100 µM | > 100 µM | – | –
Oc1ccc2c(c1)OCC(O)(c1ccccc1O)C2 (centres undefined) | > 100 µM | > 100 µM | > 100 µM | – | > 100 µM | > 100 µM | > 100 µM | – | > 100 µM | > 100 µM | > 100 µM | – | –
O=C(CSc1nnc(Cc2ccccc2)o1)Nc1ccc(Cl)cc1 | > 100 µM | > 100 µM | > 100 µM | – | > 100 µM | – | > 100 µM | > 100 µM | > 100 µM | – | – | – | –
COC1=CC(=O)C(O)=C(C[C@@]2(C)[C@@H]3CCC[C@H](COC(=O)CCCCCNC(=O)OC(C)(C)C)[C@@]3(C)CC[C@@H]2C)C1=O | > 10 µM | > 10 µM | > 10 µM | > 10 µM | > 10 µM | > 10 µM | > 10 µM | > 10 µM | – | > 10 µM | > 10 µM | – | –
CCSc1nc2sc(C)c(C)c2c(=O)n1-c1ccc(C(=O)O)cc1 | > 100 µM | > 100 µM | > 100 µM | > 100 µM | 86.2 µM | > 100 µM | > 100 µM | > 100 µM | > 100 µM | – | – | – | –
CCOC(=O)c1c(C)n(Cc2ccccc2)c2c1cc(O)c1[nH]c3c(c12)CCCC3 | 17.8 µM | 18.7 µM | 20.9 µM | – | – | 5.16 µM | 6.43 µM | 15.6 µM | – | 19 µM | 9.92 µM | – | –
Cc1cc2c(c3oc(C(O)(CO)C4CO4)cc(=O)c13)C(=O)c1c(O)cccc1C2=O (centres undefined) | – | 0.0095 µM and 0.00824 µM and 0.0382 µM | – | 0.00227 µM | 0.00209 µM | – | – | 0.00527 µM and 0.00231 µM and 0.0152 µM | 0.00727 µM and 0.00365 µM and 0.0112 µM | 0.00843 µM and 0.00411 µM | – | 0.00375 µM | 0.000169 µM
CN(C)C(=O)CC(C(=O)O)c1c[nH]c2ccccc12 (centres undefined) | > 100 µM | – | > 100 µM | > 100 µM | – | – | 41.6 µM | > 100 µM | > 100 µM | – | – | – | –
CCCCCCOc1ccc(NC2=C(Cl)C(=O)c3cccnc3C2=O)cc1 | 4.08 µM | 5.03 µM | 2.87 µM | – | 3.58 µM | 5.31 µM | 2.47 µM | 4.85 µM | 3.1 µM | – | > 10 µM | – | –
Cn1c(C(C#N)c2cc(Cl)ncn2)nc2ccccc21 (centres undefined) | > 100 µM | > 100 µM | > 100 µM | – | > 100 µM | > 100 µM | > 100 µM | > 100 µM | – | > 100 µM | – | – | –
Cc1ccc(C(=O)CC(Cl)=C(Cl)Cl)cc1 | – | > 100 µM | > 100 µM | 55.6 µM | > 100 µM | > 100 µM | > 100 µM | > 100 µM | – | > 100 µM | > 100 µM | – | –
